Experimental data: patent publication US20240228458A1, “PYRIMIDINE DERIVATIVE HAVING PROTEIN KINASE INHIBITORY ACTIVITY, AND THERAPEUTIC PHARMACEUTICAL COMPOSITION COMPRISING SAME” (THERAPEX CO., LTD., priority 2021, published 2024)

Key:
Format in all cases: cell-based
[1] = test system: Ba/F3 cells expressing EGFR-wt; assay: Growth inhibition (GI50) of Ba/F3 cells expressing EGFR-wt, Celltiter glo; conditions: Mus musculus, BaF3, 72 h
Outline: (§1)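 Antiproliferative activity was assessed in EGFR-mutant or wild-type Ba/F3 cells over 72 h at 37 °C with 5% CO2. Cell viability was determined by CellTiter-Glo, and GI50 taken as the compound concentration inhibiting growth by 50%.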

[2] = test system: Ba/F3 cells expressing del19/T790M/C797S (EGFR-DTC); assay: Growth inhibition (GI50) of Ba/F3 cells expressing del19/T790M/C797S (EGFR-DTC), Celltiter glo; conditions: Mus musculus, BaF3, 72 h
Outline: as §1

[3] = test system: Ba/F3 cells expressing L858R/T790M/C797S (EGFR-LTC); assay: Growth inhibition (GI50) of Ba/F3 cells expressing L858R/T790M/C797S (EGFR-LTC), Celltiter glo; conditions: Mus musculus, BaF3, 72 h
Outline: as §1

[4] = test system: Ba/F3 cells expressing del19/T790M (EGFR-DT); assay: Growth inhibition (GI50) of Ba/F3 cells expressing del19/T790M (EGFR-DT), Celltiter glo; conditions: Mus musculus, BaF3, 72 h
Outline: as §1

[5] = test system: Ba/F3 cells expressing L858R/T790M (EGFR-LT); assay: Growth inhibition (GI50) of Ba/F3 cells expressing L858R/T790M (EGFR-LT), Celltiter glo; conditions: Mus musculus, BaF3, 72 h
Outline: as §1

parental Ba/F3 cell line = assay: Growth inhibition (GI50) of the parental Ba/F3 cell line (not introduced with EGFR variants), Celltiter glo; conditions: Mus musculus, BaF3, 72 h, parental Ba/F3 cells
Outline: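 Viable cell count by CellTiter-Glo after 72 h at 37 °C gave GI50 values (μM, 50% growth inhibition). Cells lacking EGFR variants were seeded at 100,000 cells/ml and dosed 4 h later with 4-fold serial dilutions from a 2 mM stock, 0.5% DMSO.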

| SMILES | GI50 [1] | GI50 [2] | GI50 [3] | GI50 [4] | GI50 [5] | GI50 (parental Ba/F3 cell line) |
| --- | --- | --- | --- | --- | --- | --- |
| COc1ccc(NS(C)(=O)=O)c(Nc2nc(Nc3cc(C)c(N4CCC(N5CCCC(N(C)C)C5)CC4)cc3Cl)ncc2Cl)c1 (stereo not drawn) [Example 236, N-(2-((5-chloro-2-((2-chloro-4-(3-(dimethylamino)-[1,4′-bipiperidin]-1′-yl)-5-methylphenyl)amino)pyrimidin-4-yl)amino)-4-methoxyphenyl)methanesulfonamide] | 2000 to 10000 nM | 100 to 500 nM | 100 to 500 nM | 100 to 500 nM | 100 to 500 nM | 2000 to 10000 nM |
| COc1ccc(NS(C)(=O)=O)c(Nc2nc(Nc3cc(Cl)c(N4CCC(N5CCCC(N(C)C)C5)CC4)cc3OC)ncc2Cl)c1 (stereo not drawn) [Example 237, N-(2-((5-chloro-2-((5-chloro-4-(3-(dimethylamino)-[1,4′-bipiperidin]-1′-yl)-2-methoxyphenyl)amino)pyrimidin-4-yl)amino)-4-methoxyphenyl)methanesulfonamide] | 500 to 2000 nM | 100 to 500 nM | 1 to 25 nM | 100 to 500 nM | 1 to 25 nM | 2000 to 10000 nM |
| COc1nc(N2CCCN(C)CC2)ccc1Nc1ncc(Br)c(Nc2cc3c(cc2NS(C)(=O)=O)CCO3)n1 [Example 238, N-(6-((5-bromo-2-((2-methoxy-6-(4-methyl-1,4-diazepan-1-yl)pyridin-3-yl)amino)pyrimidin-4-yl)amino)-2,3-dihydrobenzofuran-5-yl)methanesulfonamide] | 2000 to 10000 nM | 2000 to 10000 nM | 100 to 500 nM | 2000 to 10000 nM | 100 to 500 nM | 2000 to 10000 nM |
| CN1CCN(C2CCN(c3ncc(Nc4ncc(Br)c(Nc5cc6c(cc5NS(C)(=O)=O)CCO6)n4)cc3F)CC2)CC1 [Example 239, N-(6-((5-bromo-2-((5-fluoro-6-(4-(4-methylpiperazin-1-yl)piperidin-1-yl)pyridin-3-yl)amino)pyrimidin-4-yl)amino)-2,3-dihydrobenzofuran-5-yl)methanesulfonamide] | 500 to 2000 nM | 500 to 2000 nM | 100 to 500 nM | 25 to 100 nM | 25 to 100 nM | 2000 to 10000 nM |
| COc1nc(N2CCC(N3CCN(C)CC3)CC2)c(C)cc1Nc1ncc(Br)c(Nc2cc3c(cc2NS(C)(=O)=O)CCO3)n1 [Example 240, N-(6-((5-bromo-2-((2-methoxy-5-methyl-6-(4-(4-methylpiperazin-1-yl)piperidin-1-yl)pyridin-3-yl)amino)pyrimidin-4-yl)amino)-2,3-dihydrobenzofuran-5-yl)methanesulfonamide] | 500 to 2000 nM | 100 to 500 nM | 1 to 25 nM | 100 to 500 nM | 1 to 25 nM | 2000 to 10000 nM |
| COc1nc(N2CCC(N3CCN(C)CC3)CC2)c(C)cc1Nc1ncc(Cl)c(Nc2cc3c(cc2NS(C)(=O)=O)CCO3)n1 [Example 241, N-(6-((5-chloro-2-((2-methoxy-5-methyl-6-(4-(4-methylpiperazin-1-yl)piperidin-1-yl)pyridin-3-yl)amino)pyrimidin-4-yl)amino)-2,3-dihydrobenzofuran-5-yl)methanesulfonamide] | 500 to 2000 nM | 100 to 500 nM | 25 to 100 nM | 100 to 500 nM | 1 to 25 nM | 2000 to 10000 nM |
| CN1CCN(C2CCN(c3ncc(Nc4ncc(Cl)c(Nc5cc6c(cc5NS(C)(=O)=O)CCO6)n4)cc3F)CC2)CC1 [Example 242, N-(6-((5-chloro-2-((5-fluoro-6-(4-(4-methylpiperazin-1-yl)piperidin-1-yl)pyridin-3-yl)amino)pyrimidin-4-yl)amino)-2,3-dihydrobenzofuran-5-yl)methanesulfonamide] | 2000 to 10000 nM | 2000 to 10000 nM | 25 to 100 nM | 500 to 2000 nM | 1 to 25 nM | 2000 to 10000 nM |
| COc1cc(N2CCC(N3CCN(C)CC3)CC2)ccc1Nc1ncc(Br)c(Nc2cc3c(cc2NS(C)(=O)=O)CCO3)n1 [Example 243, N-(6-((5-bromo-2-((2-methoxy-4-(4-(4-methylpiperazin-1-yl)piperidin-1-yl)phenyl)amino)pyrimidin-4-yl)amino)-2,3-dihydrobenzofuran-5-yl)methanesulfonamide] | 500 to 2000 nM | 100 to 500 nM | 1 to 25 nM | 100 to 500 nM | 1 to 25 nM | 2000 to 10000 nM |
| CN1CCN(C2CCN(c3ccc(Nc4ncc(Br)c(Nc5cc6c(cc5NS(C)(=O)=O)CCO6)n4)cc3F)CC2)CC1 [Example 244, N-(6-((5-bromo-2-((3-fluoro-4-(4-(4-methylpiperazin-1-yl)piperidin-1-yl)phenyl)amino)pyrimidin-4-yl)amino)-2,3-dihydrobenzofuran-5-yl)methanesulfonamide] | 25 to 100 nM | 25 to 100 nM | 1 to 25 nM | 1 to 25 nM | 1 to 25 nM | 100 to 500 nM |

Continued, in another order:

| GI50 [1] | GI50 [2] | GI50 [3] | GI50 [4] | GI50 [5] | SMILES | GI50 (parental Ba/F3 cell line) |
| --- | --- | --- | --- | --- | --- | --- |
| 2000 to 10000 nM | 25 to 100 nM | 1 to 25 nM | 100 to 500 nM | 1 to 25 nM | COc1cc(N2CCC(N3CCC(C(F)(F)F)CC3)CC2)c(C)cc1Nc1ncc(Br)c(Nc2cc3c(cc2NS(C)(=O)=O)CCO3)n1 [Example 245, N-(6-((5-bromo-2-((2-methoxy-5-methyl-4-(4-(trifluoromethyl)-[1,4′-bipiperidin]-1′-yl)phenyl)amino)pyrimidin-4-yl)amino)-2,3-dihydrobenzofuran-5-yl)methanesulfonamide] | 2000 to 10000 nM |
| 500 to 2000 nM | 100 to 500 nM | 1 to 25 nM | 100 to 500 nM | 1 to 25 nM | CN1CCN(C2CCN(c3ccc(Nc4ncc(Br)c(Nc5cc6c(cc5NS(C)(=O)=O)CCO6)n4)c(Cl)c3)CC2)CC1 [Example 246] | 2000 to 10000 nM |
| 500 to 2000 nM | 100 to 500 nM | 100 to 500 nM | 25 to 100 nM | 100 to 500 nM | CN1CCN(C2CCN(c3ccc4cc(Nc5ncc(Br)c(Nc6cc7c(cc6NS(C)(=O)=O)CCO7)n5)ccc4n3)CC2)CC1 [Example 247, N-(6-((5-bromo-2-((2-(4-(4-methylpiperazin-1-yl)piperidin-1-yl)quinolin-6-yl)amino)pyrimidin-4-yl)amino)-2,3-dihydrobenzofuran-5-yl)methanesulfonamide] | 2000 to 10000 nM |
| 100 to 500 nM | 25 to 100 nM | 1 to 25 nM | 1 to 25 nM | 1 to 25 nM | COc1cc(N2CCC(N3CCN(C)CC3)CC2)c(C)cc1Nc1ncc(Cl)c(Nc2cc3c(cc2N(C)S(C)(=O)=O)CCO3)n1 [Example 248, N-(6-((5-chloro-2-((2-methoxy-5-methyl-4-(4-(4-methylpiperazin-1-yl)piperidin-1-yl)phenyl)amino)pyrimidin-4-yl)amino)-2,3-dihydrobenzofuran-5-yl)-N-methylmethanesulfonamide] | 2000 to 10000 nM |
| 100 to 500 nM | 25 to 100 nM | 1 to 25 nM | 1 to 25 nM | 1 to 25 nM | COc1cc(N2CCC(N3CCN(C)CC3)CC2)c(Cl)cc1Nc1ncc(Cl)c(Nc2cc3c(cc2N(C)S(C)(=O)=O)CCO3)n1 [Example 249, N-(6-((5-chloro-2-((5-chloro-2-methoxy-4-(4-(4-methylpiperazin-1-yl)piperidin-1-yl)phenyl)amino)pyrimidin-4-yl)amino)-2,3-dihydrobenzofuran-5-yl)-N-methylmethanesulfonamide] | 2000 to 10000 nM |
| 100 to 500 nM | 1 to 25 nM | 1 to 25 nM | 1 to 25 nM | 1 to 25 nM | COc1cc(N2CCC(N3CCN(C)CC3)CC2)c(C)cc1Nc1ncc(Br)c(Nc2cc3c(cc2N(C)S(C)(=O)=O)CCO3)n1 [Example 250, N-(6-((5-bromo-2-((2-methoxy-5-methyl-4-(4-(4-methylpiperazin-1-yl)piperidin-1-yl)phenyl)amino)pyrimidin-4-yl)amino)-2,3-dihydrobenzofuran-5-yl)-N-methylmethanesulfonamide] | 2000 to 10000 nM |
| 100 to 500 nM | 25 to 100 nM | 1 to 25 nM | 1 to 25 nM | 25 to 100 nM | Cc1cc(Nc2ncc(Br)c(Nc3cc4c(cc3N(C)S(C)(=O)=O)CCO4)n2)c(Cl)cc1N1CCC(N2CCN(C)CC2)CC1 [Example 251, N-(6-((5-bromo-2-((2-chloro-5-methyl-4-(4-(4-methylpiperazin-1-yl)piperidin-1-yl)phenyl)amino)pyrimidin-4-yl)amino)-2,3-dihydrobenzofuran-5-yl)-N-methylmethanesulfonamide] | 2000 to 10000 nM |
| 25 to 100 nM | 25 to 100 nM | 1 to 25 nM | 1 to 25 nM | 1 to 25 nM | COc1cc(N2CCC(N3CCN(C)CC3)CC2)c(Cl)cc1Nc1ncc(Br)c(Nc2cc3c(cc2N(C)S(C)(=O)=O)CCO3)n1 [Example 252, N-(6-((5-bromo-2-((5-chloro-2-methoxy-4-(4-(4-methylpiperazin-1-yl)piperidin-1-yl)phenyl)amino)pyrimidin-4-yl)amino)-2,3-dihydrobenzofuran-5-yl)-N-methylmethanesulfonamide] | 2000 to 10000 nM |
